Legend:
HepG2 cells = assay type: cell-based, human
Procedure: (§1) The effect of the sub-micromolar HDM2 binding bis-peptide 1 in cell-culture was thereafter evaluated. The cell-penetrating capability of two of the functionalized bis-peptides was first examined. […] Bis-peptide 1 was then incubated with both Huh7 cells and HepG2 (human liver hepatoblastoma cells) and imaged.

Huh7 cells = experiment: cell penetration by fluorescence microscopy, Huh7; assay type: cell-based, human
Procedure: as §1

p53 = settings: stated as known behaviour of HDM2 ligands; cited from earlier work

| Structure (SMILES) | cellular uptake and distribution (HepG2 cells) | cellular uptake and distribution (Huh7 cells) | cellular uptake (Huh7 cells; Huh7, 2 μM, 24 hours, fluorescence and confocal microscopy) | effect on p53 levels (p53) |
| --- | --- | --- | --- | --- |
| CC(C)CN1C(=O)[C@@H]2C[C@@]3(CN2C(=O)[C@@]12C[C@H]1C(=O)N(Cc4ccc(Cl)c(Cl)c4)[C@]4(C[C@@H]5C(=O)N[C@@H](CCc6ccccc6)C(=O)N5C4)C(=O)N1C2)NC(=O)[C@@H](CCCCNC(=S)Nc1ccc2c(c1)C(=O)OC21c2ccc(O)cc2Oc2cc(O)ccc21)NC3=O [Entry 1] | distribution of entry 1 throughout the cytoplasm and nucleus | distribution of entry 1 throughout the cytoplasm and nucleus |  |  |
| CC(C)CN1C(=O)[C@@H]2C[C@@]3(CN2C(=O)[C@@]12C[C@H]1C(=O)N(Cc4ccc5ccccc5c4)[C@]4(C[C@H]5C(=O)N[C@@H](Cc6ccccc6)C(=O)N5C4)C(=O)N1C2)NC(=O)[C@H](CCCCNC(=S)Nc1ccc2c(c1)C(=O)OC21c2ccc(O)cc2Oc2cc(O)ccc21)NC3=O [Entry 3] |  |  | Significant uptake |  |
| O=C1OC2(c3ccc(O)cc3Oc3cc(O)ccc32)c2ccccc21 [fluorescein, reference compound] | no visible uptake of fluorescence | no visible uptake of fluorescence |  |  |
| COc1ccc(C2=N[C@@H](c3ccc(Cl)cc3)[C@@H](c3ccc(Cl)cc3)N2C(=O)N2CCNC(=O)C2)c(OC(C)C)c1 [nutlin-3a] |  |  |  | increase in p53 levels |

— patent publication US8895739B2, “Acylation of hindered amines and functionalized bis-peptides obtained thereby” (Temple University of the Commonwealth System of Higher …, priority 2008, dated 2014)
